Measurements reported in patent publication US5762910A, “Liposoluble compounds useful as magnetic resonance imaging agents” (ImaRx Pharmaceutical Corp., priority 1996, dated 1998).

How the values were obtained:
[1] = In vitro relaxivity of liposomal contrast agents at 0.5 Tesla (Table I); type: physicochemical; conditions: 0.5 Tesla (21.3 MHz); liposomes EPC/cholesterol 8:2, 33 mole percent compound
Protocol: Liposomal contrast agents of the invention, prepared in accordance with Example 8, were serially diluted from a stock solution of known concentration. Diluted concentrations for testing were held constant at 0.5 mM, 0.25 mM, 0.125 mM, 0.100 mM, 0.05 mM, and 0.025 mM, respectively. Samples were scanned on a Toshiba MRT 50A 0.5 Tesla (21.3 MHz) clincal magnet equipped with a QD head coil (Toshiba MRI scanner, Nasu, Japan). Signal intensities for resulting scans were then statistically analyzed using a computer curve fitting program (Fit All, MTR Software, version 1.1). Resulting relaxivities were regressed against the concentration to determine R1 (1/T1 mmol sec^-1) and R2 ([…]). The results were compared with similar scans for other compounds not within the scope of the present invention. Specifically, as a comparison for the contrast agents of the invention, 0.5 Tesla scans were made of Gd-DTPA (no liposome), Mn-EDTA-MEA (no liposome), Mn-EDTA-MEA (incorporated into a liposome of 0.1 micron), and phosphate buffered saline (PBS).
In all liposome examples in Table I, the lipid concentration is 200 mM, and all liposomes are composed of 80 mole percent egg phosphatidyl choline (EPC) and 20 mole percent cholesterol. […]

[2] = In vitro relaxivity of Mn-EDTA-DDP and Mn-EDTA-DDP albumin suspensions at 0.5 Tesla (Table III); type: physicochemical; conditions: 0.5 Tesla (21.3MHz), in mM^-1 s^-1
Protocol: Mn-EDTA-DDP and Mn-EDTA-DDP albumin suspensions (contrast agents within the scope of the invention) were prepared in accordance with Example 11, except that water instead of saline was used. The samples scanned by NMR using a 0.5 Tesla (21.3MHz) Toshiba MRI scanner (Nasu, Japan) to determine relaxivity. The results were compared with similar scans for other compounds not within the scope of the invention. Specifically, scans were made of contrast agent of the invention, Mn-EDTA-DDP, Mn-EDTA-DDP albumin suspensions (both heated to 55° C., and unheated), and compared with scans of PBS, Gd-DTPA, MnCl2, and MnCl2 albumin suspensions. MnCl2, and the MnCl2 liposomes were prepared in accordance with Example 15.

[3] = background; compared with gadolinium alone; cited from earlier work
[4] = tested on: rats bearing hepatic tumors (C5 clonal derivative epithelioid neoplasms); assay: In vivo efficacy, MR imaging at 1.5 Tesla of rats bearing hepatic tumors (Tables IV A-D); design: species or system rat; conditions: i.v.; for Tumor Contrast To Noise: 30 minute delay
Protocol: Mn-EDTA-ODP and Mn-EDTA-DDP liposomes of both 30 nm and 100 nm (contrast agents within the scope of the invention) were prepared in accordance with Example 8, injected intraveneously via a tail vein injection into rats bearing hepatic tumors (C5 clonal derivative epithelioid neoplasms), and the rats imaged using a 1.5 Tesla GE Signa Clinical Magnet equipped with a linear knee coil. Animals were anesthesized with a 10:1 mixture v/v of ketamine (100 mg/ml) and acepoumozine (10 mg/ml) prior to imaging. Imaging parameters were: TR=250; TE=12; Matrix=256×192; NEX=8; FOV 16 cm; Slice Thickness=3 mm; Slice Gap=1 mm. Images were taken in the coronal plane, mapped off an axial scout image. For comparison, rats were also injected with MnCl2, and MnCl2 liposomes, prepared in accordance with Example 15.
In Table IV A, imaging was preformed with one rat at each dose. S/N denotes signal to noise ratio.
In Table IV B, the "*" denotes a 30 minutes delay in imaging. Also, NA denotes that imaging was not done at the indicated dosage. The liposomes employed were composed of 80 mole percent egg phosphatidylcholine (EPC) and 20 mole percent cholesterol. With the Mn-EDTA-DDP liposomes, there was a 1:3 molar ratio of Mn-EDTA-DDP to lipid in the liposomes (lipid was 8:2 EPC/cholesterol). The data was obtained from one rat imaged at each dose.
In Table IV C, NT denotes that no tumors were detected, and NA denotes that imaging not done at the indicated dosage.
In Table IV D, NT denotes that no tumors were detected, and NA denotes that imaging not done at the indicated dosage.

Outbred ICR mice = assay: In vivo toxicity, LD50 in mice after intravenous tail vein injection (Table V); design: species or system mouse; conditions: i.v. tail vein
Protocol: Outbred ICR mice (Harlan Sprague Dawley, Indianapolis, Ind.) were injected intraveneously via a tail vein injection with various doses of Mn-EDTA-DDP and Mn-EDTA-DDP liposomes, prepared in accordance with Example 8, and the LD50 measured. As a comparison, the mice were also injected with MnCl2 and MnCl2 liposomes.
In Table V, MnCl2 liposomes denotes manganese chloride salt entrapped in 100 nm diameter liposomes comprised of 8:2 EPC/cholesterol. Also, Mn-EDTA-DDP in liposomes refers to 100 nm liposomes comprised of 1:3Mn-EDTA-DDP to lipid (where the lipid is 8:2 EPC/cholesterol).

O=C([O-])CN(CCN(CC(=O)[O-])CC(=O)[O-])CCN(CC(=O)[O-])CC(=O)[O-].[Gd+3] [Gd-DTPA]
R1 (1/T1), relaxivity [1]: 4.68 ± 0.279 per millimole of paramagnetic
R2 (1/T2), relaxivity [1]: 5.17 ± 0.148 per millimole of paramagnetic
R1, relaxivity ([2]; 1.0 mM): 4.58 ± 0.143
R2, relaxivity ([2]; 1.0 mM): 5.41 ± 0.65
toxicity (in words) [3]: much less toxicity

[Cl][Mn][Cl] [MnCl2, manganese chloride]
R1, relaxivity ([2]; with and without albumin): 8.73 ± 0.928
R2, relaxivity ([2]; with and without albumin): 39.45 ± 0.515
Tumor Contrast To Noise ([4]; 0.5 μM/kg): 12
Percent Liver Enhancement ([4]; 0.5 μM/kg, delayed post (30 minutes delay)): 0%
Contrast to Noise ([4]; 0.5 μM/kg, post): 19
Percent Liver Enhancement ([4]; 0.5 μM/kg, post): 0%
Contrast to Noise ([4]; 0.5 μM/kg, pre): 28
Tumor Contrast To Noise ([4]; 1.0 μM/kg): 16
Percent Liver Enhancement ([4]; 1.0 μM/kg, delayed post (30 minutes delay)): 0%
Contrast to Noise ([4]; 1.0 μM/kg, post): 23
Percent Liver Enhancement ([4]; 1.0 μM/kg, post): 0%
Contrast to Noise ([4]; 1.0 μM/kg, pre): 37.5
Tumor Contrast To Noise ([4]; 2.5 μM/kg): 35.9
Percent Liver Enhancement ([4]; 2.5 μM/kg, delayed post (30 minutes delay)): 29.4%
Contrast to Noise ([4]; 2.5 μM/kg, post): 17.9
Percent Liver Enhancement ([4]; 2.5 μM/kg, post): 25%
Contrast to Noise ([4]; 2.5 μM/kg, pre): 13.1
Tumor Contrast To Noise ([4]; 5.0 μM/kg): 31.3
Percent Liver Enhancement ([4]; 5.0 μM/kg, delayed post (30 minutes delay)): 21%
Contrast to Noise ([4]; 5.0 μM/kg, post): 28.3
Percent Liver Enhancement ([4]; 5.0 μM/kg, post): 43%
Contrast to Noise ([4]; 5.0 μM/kg, pre): 21.3
Tumor Contrast To Noise ([4]; 10.0 μM/kg): 29.6
Percent Liver Enhancement ([4]; 10 μM/kg, delayed post (30 minutes delay)): 61%
Percent Liver Enhancement ([4]; 10 μM/kg, post): 81%
Contrast to Noise ([4]; 10.0 μM/kg, post): 29.2
Contrast to Noise ([4]; 10.0 μM/kg, pre): 9.3
Interpolated LD50s (Outbred ICR mice): 250 µmol/kg

Manganese N,N'-Bis-(Carboxy-Decylamidomethyl-N-2,3-Dihydroxypropyl)-Ethylenediamine- N,N'-Diacetate [Mn-EDTA-DDP]
R1, relaxivity ([2]; with and without albumin): 9.83 ± 0.332
R2, relaxivity ([2]; with and without albumin): 15.20 ± 0.393
Interpolated LD50s (Outbred ICR mice): 240 µmol/kg
